Source: ChEMBL document CHEMBL1157921, “Selective targeting of 2'-deoxy-5-fluorouridine to urokinase positive malignant cells in vitro” (Bioorg Med Chem Lett, 2010)
Calls of active or inactive are those of the source. The calls are words filed in the database; no cut-off is given here.

Columns and labels:
Assay type in all cases: functional, cell-based
[1] = system: MCF7; assay: Cytotoxicity against human MCF7 cells overexpressing urokinase plasminogen activator at > 144 uM
[2] = system: MDA-MB-231; assay: Cytotoxicity against human MDA-MB-231 cells overexpressing urokinase plasminogen activator
[3] = system: MCF7; assay: Cytotoxicity against human MCF7 cells overexpressing urokinase plasminogen activator at > 20.3 uM

Compound | inhibition [1] | IC50 [2] | inhibition [3]
O=C(O)CCC(=O)O[C@H]1C[C@H](n2cc(F)c(=O)[nH]c2=O)O[C@@H]1CO | inactive |  | 
O=c1[nH]c(=O)n([C@H]2C[C@H](O)[C@@H](CO)O2)cc1F [FLOXURIDINE] |  | 210 nM | inactive
